Structures can show the parent of a compound that is named as a salt.

As usually defined, the IC50 is the concentration needed to halve the response being measured.

The test system of one experiment is NCI-H1417 cells. The experiment is described as follows: In vitro cell inhibition assay - H1417 cell proliferation (CellTiter-Glo). It counts as cell-based. To be noted: Homo sapiens, NCI-H1417, H1417 small cell lung cancer cell proliferation. The procedure, abridged: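 Cells exposed to 8 compound concentrations (5-fold dilutions) in BEGM with 10% FBS for 7 days at 37° C., 5% CO2. Viable cells measured by CellTiter-Glo luminescence; inhibition versus no-inhibitor and no-cell controls, IC50 fitted.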

For the next experiment, the target named is pan-HDAC. The experiment is described as follows: In vitro enzyme inhibition assay - HDAC (HDAC-Glo I/II), pan-HDAC. The experiment is classed as biochemical. Summed up: (§1)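 Eight compound concentrations (5-fold gradient; 1 mM DMSO stock) were assayed by HDAC-Glo I/II luminescence. IC50 was obtained by four-parameter fitting.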
The next experiment addresses HDAC8 (Homo sapiens (Human), UniProt Q9BY41). Briefly: In vitro enzyme inhibition assay - HDAC (HDAC-Glo I/II), HDAC8. It counts as biochemical. The settings on record: read-out: HDAC IC50 (nM) HDAC 8. Summed up: as §1
For another experiment, the system named is NCI-H69 cells. Briefly: In vitro cell inhibition assay - NCI-H69 cell proliferation (CellTiter-Glo). The experiment is classed as cell-based. To be noted: Homo sapiens, NCI-H69, H69 small cell lung cancer cell proliferation. Summed up:
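7-day exposure at 37° C., 5% CO2 to compounds serially diluted 5-fold (8 concentrations) in RPMI-640 containing 20% FBS, after overnight attachment at 1×10^3 cells/well. Read-out: CellTiter-Glo luminescence (RLU); IC50 from curve fit of inhibition rate.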
(In general: Cellular ATP, detected with luciferase, serves as a proxy for viable cell number.)

A further experiment has as its target LSD1 (Homo sapiens (Human), UniProt O60341). Briefly: In vitro enzyme inhibition assay - LSD1 (HTRF). It counts as biochemical. A general note: In TR-FRET formats the signal depends on donor and acceptor labels being close together.
The target of another experiment is HDAC1 (Homo sapiens (Human), UniProt Q13547). Briefly: In vitro enzyme inhibition assay - HDAC (HDAC-Glo I/II), HDAC1. The experiment is classed as biochemical. To be noted: read-out: HDAC IC50 (nM) HDAC 1. On the procedure:
2. In Vitro Enzyme Inhibition Assay—HDAC
The effect of the compound on the enzymatic activity of pan-HDAC and two isoforms (HDAC1 and HDAC8) was examined using the HDAC-Glo I/II Assay and Screening System assay to assess the level of inhibition of HDAC protease activity and selectivity in each isoform. The proteins and detection reagents were from the HDAC-Glo™ I/II Assay and Screening System (Promega). A 1 mM stock solution of the compound was prepared in DMSO and diluted in a 5-fold gradient to create a series of 8 concentrations, and a specific volume of the highest concentration was diluted 25 times with HDAC Buffer to obtain 4× working solution of the compound. […] The 384-well plate was then read on a multifunctional microplate reader, with the Luminescence channel selected to record Luminescence values (RLU). The inhibition rate was calculated using the following formula: […]
Note: ‘Negative’ refers to the group without the inhibitor; ‘Blank’ refers to the group without the enzyme.
The IC50 value was calculated by fitting the inhibition rate by GraphPad Prism software, employing log (inhibitor) vs. response-Variable Slope (four parameters) model.

A further experiment deals with NCI-H526 cells. Briefly: In vitro cell inhibition assay - NCI-H526 cell proliferation (CellTiter-Glo). The experiment is classed as cell-based. The settings on record: Homo sapiens, NCI-H526, 120 h, H526 small cell lung cancer cell proliferation, 5 days. Summed up:
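NCI-H526 cells plated at 1×10^3 per well overnight, then treated with 8 concentrations (5-fold dilutions) in RPMI-640 with 10% FBS for 5 days at 37° C., 5% CO2. Viable cells quantified by CellTiter-Glo luminescence; IC50 fitted from inhibition rates relative to no-inhibitor and no-cell controls.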

Sequence of HDAC1 (Q13547 whole entry): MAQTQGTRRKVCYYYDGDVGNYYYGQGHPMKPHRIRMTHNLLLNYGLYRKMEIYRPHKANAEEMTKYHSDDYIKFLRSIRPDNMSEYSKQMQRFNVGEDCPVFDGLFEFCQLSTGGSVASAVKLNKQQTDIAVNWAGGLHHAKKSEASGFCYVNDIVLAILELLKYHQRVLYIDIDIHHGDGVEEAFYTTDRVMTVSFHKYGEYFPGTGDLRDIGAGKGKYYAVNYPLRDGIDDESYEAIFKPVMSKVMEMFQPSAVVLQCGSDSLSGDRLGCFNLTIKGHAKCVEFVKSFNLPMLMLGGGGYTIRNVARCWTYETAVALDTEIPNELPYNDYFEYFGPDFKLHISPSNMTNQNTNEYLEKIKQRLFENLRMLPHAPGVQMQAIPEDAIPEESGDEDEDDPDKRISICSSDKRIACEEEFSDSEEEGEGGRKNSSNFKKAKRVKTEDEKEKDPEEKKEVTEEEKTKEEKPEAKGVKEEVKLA
Sequence of HDAC8 (Q9BY41 whole entry): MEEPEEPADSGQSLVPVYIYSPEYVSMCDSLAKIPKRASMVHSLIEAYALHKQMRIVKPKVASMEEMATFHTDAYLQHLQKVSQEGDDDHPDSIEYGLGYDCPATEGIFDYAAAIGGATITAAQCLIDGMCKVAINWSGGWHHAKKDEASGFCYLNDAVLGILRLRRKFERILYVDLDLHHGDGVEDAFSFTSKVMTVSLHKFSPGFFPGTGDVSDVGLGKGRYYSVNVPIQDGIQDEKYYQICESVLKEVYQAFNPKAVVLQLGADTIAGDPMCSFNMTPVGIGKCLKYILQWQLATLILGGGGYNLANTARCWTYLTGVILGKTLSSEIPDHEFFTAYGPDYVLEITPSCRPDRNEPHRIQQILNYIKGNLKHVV

For `COc1ccc(-c2c(OCc3ccc(/C=C/C(=O)NO)cc3)cc(N3CCC(N)CC3)nc2-c2ccc(C#N)c(F)c2)cc1O` [Example 2, (E)-3-(4-(((6-(4-Aminopiperidin-1-yl)-2-(4-cyano-3-fluorophenyl)-3-(3-hydroxy-4-methoxyphenyl)pyridin-4-yl)oxy)methyl)phenyl)-N-hydroxyacrylamide hydrochloride], the concentration for half-maximal inhibition (IC50) is 51.9 nM in the experiment on NCI-H1417 cells; 66.9 nM on pan-HDAC; 289 nM at HDAC8; 7890 nM in the experiment with NCI-H69 cells; 1.58 nM against LSD1; 92.3 nM on HDAC1.

Take `N#Cc1ccc(-c2nc(N3CCC(N)CC3)n3ccnc3c2-c2ccc(OCc3ccc(/C=C/C(=O)NO)cc3)c(O)c2)cc1F` [Example 23, (E)-3-(4-(4-(5-(4-Aminopiperidin-1-yl)-7-(4-cyano-3-fluorophenyl)imidazo[1,2-c]pyrimidin-8-yl)-2-hydroxyphenoxy)methyl)phenyl)-N-hydroxyacrylamide hydrochloride]: the IC50 in the experiment with NCI-H1417 cells was found to be 1.55 nM; on pan-HDAC, 74.4 nM; at HDAC8 it was 320 nM; in the experiment on NCI-H69 cells it was 760 nM; on LSD1, 0.23 nM; on HDAC1 it was 198 nM.

For `COc1cc(N2CCC(N)CC2)nc(-c2ccc(C#N)c(F)c2)c1-c1ccc(OC/C=C/C(=O)NO)c(O)c1` [Example 29, (E)-4-(4-(6-(4-Amino-piperidin-1-yl)-2-(4-cyano-3-fluorophenyl)-4-methoxypyridin-3-yl)-2-hydroxyphenoxy)-N-hydroxybut-2-enamide hydrochloride], the IC50 with NCI-H1417 cells was 92.2 nM; at pan-HDAC, 66.9 nM; at HDAC8, 696 nM; in the experiment with NCI-H69 cells, 3200 nM; against LSD1 it was 0.96 nM; at HDAC1 it was 123 nM.

`CNC1CCN(c2ncc(-c3ccc(NCc4ccc(C(=O)NO)cc4)c(O)c3)c(-c3ccc(C#N)c(F)c3)c2C#N)CC1` [Example 39, 4-((4-(4-(5-Cyano-4-(4-cyano-3-fluorophenyl)-6-(4-(methylamino)piperidin-1-yl)pyridin-3-yl)-2-hydroxyphenyl)amino)methyl)-N-hydroxybenzamide hydrochloride]: the IC50 in the experiment on NCI-H1417 cells stood at 5.2 nM; against pan-HDAC, 167 nM; on HDAC8, 207 nM; in the experiment on NCI-H69 cells, 2390 nM; at LSD1, 0.15 nM; on HDAC1, 335 nM.

For the molecule `Cc1ccc(-c2c(-c3ccc(C#N)c(F)c3)nc(N3CCC(NC(=O)CCCCCCC(=O)NO)CC3)n3ccnc23)cc1O` [Example 56, N^1-(1-(7-(4-cyano-3-fluorophenyl)-8-(3-hydroxy-4-methylphenyl)imidazo[1,2-c]pyrimidin-5-yl)piperidin-4-yl)-N^8-hydroxyoctanediamide hydrochloride], the IC50 in the experiment with NCI-H1417 cells is 5.4 nM; at pan-HDAC it was 467 nM; at HDAC8, 893 nM; in the experiment on NCI-H69 cells it was 1280 nM; at LSD1, 91.5 nM; on HDAC1, 642 nM.

For the molecule `N#Cc1ccc(-c2c(-c3ccc(NC(=O)CCCCCCC(=O)NO)c(O)c3)cnc(N3CCC(N)CC3)c2C#N)cc1F` [Example 58, N^1-(4-(6-(4-aminopiperidin-1-yl)-5-cyano-4-(4-cyano-3-fluorophenyl)pyridin-3-yl)-2-hydroxyphenyl)-N^8-hydroxyoctanediamide hydrochloride], the IC50 in the experiment with NCI-H1417 cells was determined as 46.3 nM; against pan-HDAC, 31.9 nM; at HDAC8, 136 nM; in the experiment with NCI-H69 cells, 3000 nM; against LSD1, 0.1 nM; at HDAC1, 47.4 nM.

Regarding `COc1ccc(-c2cnc(N3CCC(NCc4ccc(/C=C/C(=O)NO)nc4)CC3)c(CC#N)c2-c2ccc(C#N)c(F)c2)cc1O` [Example 217, (E)-3-(5-(((1-(4-(4-cyano-3-fluorophenyl)-3-(cyanomethyl)-5-(3-hydroxy-4-methoxyphenyl)pyridin-2-yl)piperidin-4-yl)amino)methyl)pyridin-2-yl)-N-hydroxyacrylamide formate], the IC50 with NCI-H1417 cells came out at 5.06 nM; against pan-HDAC it was 0.25 nM; in the experiment with NCI-H526 cells, 20.9 nM; in the experiment with NCI-H69 cells it was 11.1 nM; at LSD1, 13.6 nM; at HDAC1 it was 0.73 nM.

For `CC(C)(O)COc1ccc(-c2cnc(N3CCC(NCc4ccc(/C=C/C(=O)NO)cc4)CC3)c(CC#N)c2-c2ccc(C#N)c(F)c2)cc1O` [Example 218, (E)-3-(4-(((1-(4-(4-Cyano-3-fluorophenyl)-3-(cyanomethyl)-5-(3-hydroxy-4-(2-hydroxy-2-methylpropoxy)phenyl)pyridin-2-yl)piperidin-4-yl)amino)methyl)phenyl)-N-hydroxyacrylamide formate], the 50% inhibitory concentration (IC50) in the experiment on NCI-H1417 cells was determined as 13.4 nM; against pan-HDAC, 1.01 nM; in the experiment on NCI-H526 cells, 35.6 nM; with NCI-H69 cells, 15.3 nM; against LSD1 it was 10.2 nM; at HDAC1 it was 1.77 nM.

Consider `COc1ccc(-c2cnc(N3CCC(NCc4cnc(/C=C/C(=O)NO)cc4Cl)CC3)c(C#N)c2-c2ccc(C#N)c(F)c2)cc1O` [Example 227, (E)-3-(4-Chloro-5-(((1-(3-cyano-4-(4-cyano-3-fluorophenyl)-5-(3-hydroxy-4-methoxyphenyl)pyridin-2-yl)piperidin-4-yl)amino)methyl)pyridin-2-yl)-N-hydroxyacrylamide formate], for which the IC50 in the experiment with NCI-H1417 cells came out at 7.36 nM; on pan-HDAC, 11.3 nM; in the experiment with NCI-H526 cells, 109 nM; in the experiment with NCI-H69 cells it was 24.1 nM; on LSD1, 0.64 nM; at HDAC1, 9.71 nM.

Consider `N#Cc1ccc(-c2c(-c3ccc(Cl)c(O)c3)cnc(N3CCC(NCc4ccc(/C=C/C(=O)NO)cc4)CC3)c2C#N)cn1` [Example 237, (E)-3-(4-((1-(5′-(4-Chloro-3-hydroxyphenyl)-3′,6-dicyano-[3,4′-bipyridin]-2′-yl)piperidin-4-yl)amino)methyl) phenyl)-N-hydroxyacrylamide formate], for which the IC50 turned out to be 4.06 nM in the experiment with NCI-H1417 cells; 3.37 nM against pan-HDAC; 4.4 nM in the experiment on NCI-H526 cells; 3.27 nM in the experiment with NCI-H69 cells; 1.75 nM at LSD1; 1.29 nM at HDAC1.

On to `N#Cc1ccc(-c2c(-c3ccc(Cl)c(O)c3)cnc(N3CCC(NCc4ccc(/C=C/C(=O)NO)cn4)CC3)c2C#N)cn1` [Example 238, (E)-3-(6-((1-(5′-(4-Chloro-3-hydroxyphenyl)-3′,6-dicyano-[3,4′-bipyridin]-2′-yl)piperidin-4-yl)amino)methyl) pyridin-3-yl)-N-hydroxyacrylamide formate], for which the IC50 in the experiment on NCI-H1417 cells was determined as 25.7 nM; against pan-HDAC it was 4.05 nM; in the experiment with NCI-H526 cells it was 56.1 nM; with NCI-H69 cells it was 28.7 nM; on LSD1, 3.48 nM; at HDAC1 it was 1.62 nM.

`COc1cc(F)c(-c2cnc(N3CCC(NCc4ccc(/C=C/C(=O)NO)cn4)CC3)c(C#N)c2-c2ccc(C#N)nc2)cc1O` [Example 240, (E)-3-(6-(((1-(3′,6-Dicyano-5′-(2-fluoro-5-hydroxy-4-methoxyphenyl)-[3,4′-bipyridin]-2′-yl)piperidin-4-yl)amino)methyl)pyridin-3-yl)-N-hydroxyacrylamide formate]: the IC50 is 9.62 nM in the experiment with NCI-H1417 cells; 4.73 nM against pan-HDAC; 60.9 nM in the experiment on NCI-H526 cells; 24.8 nM with NCI-H69 cells; 0.82 nM against LSD1; 1.85 nM on HDAC1.

As for `N#Cc1ccc(-c2c(-c3ccc(Cl)c(O)c3)cnc(N3CCC(NCc4ccc(/C=C/C(=O)NO)cc4F)CC3)c2C#N)cn1` [Example 241, (E)-3-(4-(((1-(5′-(4-Chloro-3-hydroxyphenyl)-3′,6-dicyano-[3,4′-bipyridin]-2′-yl)piperidin-4-yl)amino)methyl)-3-fluorophenyl)-N-hydroxyacrylamide formate], the IC50 was determined as 5.78 nM in the experiment with NCI-H1417 cells; 7.81 nM against pan-HDAC; 11.2 nM with NCI-H526 cells; 5.7 nM with NCI-H69 cells; 2.95 nM at LSD1; 1.86 nM on HDAC1.

Source of the values: patent US20250304549A1, “HYDROXYAMIDE DERIVATIVE AND USE THEREOF” (SICHUAN HUIYU PHARMACEUTICAL CO., LTD., priority 2022, published 2025).
